{"source": "paper PMC7113723", "about": "(Antiviral Research, 2017)", "key": {"MERS-CoV": {"test_system": "MERS-CoV", "experiment": "microbe, parasite or virus in culture", "type": "cell-based, Middle East Respiratory Syndrome coronavirus"}, "EBOV": {"test_system": "EBOV", "settings": "cited from earlier work"}, "HCoV-229E [1]": {"test_system": "HCoV-229E", "experiment": "Immunofluorescence of viral dsRNA and nsp8 in HCoV-229E-infected MRC-5 cells", "type": "cell-based, human coronavirus 229E", "settings": "MRC-5, MOI 3, 12 h p.i."}, "Cell toxicity, MTT assay": {"experiment": "Cell toxicity, MTT assay", "settings": "human, PBMCs"}, "EBOV 5′ UTR VP40": {"test_system": "EBOV 5′ UTR VP40", "type": "cell-based, Ebola virus"}, "[2]": {"test_system": "5′ UTR of the classical swine fever virus (CSFV)", "type": "cell-based"}, "HRV A1 [3]": {"test_system": "HRV A1", "experiment": "microbe, parasite or virus in culture", "type": "cell-based, human rhinovirus A1", "settings": "Rhinovirus A, HeLa, 24 h"}, "HCoV-229E [4]": {"test_system": "HCoV-229E", "experiment": "microbe, parasite or virus in culture", "type": "cell-based", "settings": "Human coronavirus 229E, Huh-7, 24 h"}, "5′ UTR of HCoV-229E": {"test_system": "5′ UTR of HCoV-229E", "type": "cell-based, human coronavirus 229E"}, "HCoV-229E [5]": {"test_system": "HCoV-229E", "type": "cell-based, human coronavirus 229E", "settings": "Huh-7 cells, MOI 3"}, "HCoV-229E [6]": {"test_system": "HCoV-229E", "experiment": "microbe, parasite or virus in culture", "type": "cell-based", "settings": "Human coronavirus 229E, MRC5, 24 h"}, "[7]": {"settings": "ref Saradhi et al., 2011; cited from earlier work"}, "5′ UTR of PIM1": {"test_system": "5′ UTR of PIM1", "type": "cell-based"}, "HCoV-229E [8]": {"test_system": "HCoV-229E", "type": "cell-based, human coronavirus 229E", "settings": "MRC-5 cells, 10 nM silvestrol, MOI 3, 12 h and 48 h p.i."}, "[9]": {"test_system": "5′ UTR of the ß-actin mRNA", "type": "cell-based"}, "HRV A1 [10]": {"test_system": "HRV A1", "experiment": "microbe, parasite or virus in culture", "type": "cell-based, human rhinovirus A1", "settings": "Rhinovirus A, MRC5, 24 h"}, "5′ UTR of MERS-CoV": {"test_system": "5′ UTR of MERS-CoV", "type": "cell-based, Middle East Respiratory Syndrome coronavirus"}, "EBOV 5′ UTR L": {"test_system": "EBOV 5′ UTR L", "type": "cell-based, Ebola virus"}, "PV [11]": {"test_system": "PV", "experiment": "microbe, parasite or virus in culture", "type": "cell-based, poliovirus type 1"}, "PV [12]": {"test_system": "PV", "experiment": "microbe, parasite or virus in culture", "type": "cell-based, poliovirus type 1", "settings": "Enterovirus C, MRC5, 24 h"}, "HCoV-229E [13]": {"test_system": "HCoV-229E", "experiment": "microbe, parasite or virus in culture", "type": "cell-based", "settings": "Human coronavirus 229E, PBMC"}, "[14]": {"settings": "Middle East respiratory syndrome-related coronavirus, MRC5, 24 h"}}, "note": "Like-named read-outs stand apart in the source and are kept apart here.", "data": [{"smiles": "COC(=O)[C@H]1[C@@H](O)[C@@]2(O)c3c(OC)cc(O[C@@H]4O[C@@H]([C@H](O)CO)CO[C@H]4OC)cc3O[C@@]2(c2ccc(OC)cc2)[C@@H]1c1ccccc1", "note": "[silvestrol]", "values": [{"measurement": "SI, selectivity index", "setting": "MERS-CoV", "value": ">7690"}, {"measurement": "EC50", "setting": "MERS-CoV; [14]", "value": 1.3, "unit": "nM"}, {"measurement": "EC90", "setting": "MERS-CoV; [14]", "value": 12, "unit": "nM"}, {"measurement": "EBOV titers", "setting": "EBOV", "value": "strongly reduce EBOV titers"}, {"measurement": "viral dsRNA and nsp8 protein (immunofluorescence)", "setting": "HCoV-229E [1]; 10 nM silvestrol", "value": "significant decrease"}, {"measurement": "viral dsRNA and nsp8 protein (immunofluorescence)", "setting": "HCoV-229E [1]; 100 nM silvestrol", "value": "nearly no viral dsRNA and nsp8 could be detected"}, {"measurement": "CC50 at 24 h", "setting": "Cell toxicity, MTT assay", "value": "> 1000", "unit": "nM"}, {"measurement": "decrease of firefly luciferase activity", "setting": "EBOV 5′ UTR VP40", "value": 23, "unit": "%"}, {"measurement": "sensitivity towards silvestrol in the dual luciferase assay", "setting": "[2]", "value": "no sensitivity"}, {"measurement": "EC50", "setting": "HRV A1 [3]", "value": 400, "unit": "nM"}, {"measurement": "EC90", "setting": "HRV A1 [3]", "value": 3600, "unit": "nM"}, {"measurement": "EC50", "setting": "HCoV-229E [4]", "value": 40, "unit": "nM"}, {"measurement": "EC90", "setting": "HCoV-229E [4]", "value": 360, "unit": "nM"}, {"measurement": "decrease of luciferase activity", "setting": "5′ UTR of HCoV-229E", "value": "~40", "unit": "%"}, {"measurement": "N and nsp8 protein accumulation (Western blot)", "setting": "HCoV-229E [5]; 100 nM silvestrol", "value": "essentially undetectable"}, {"measurement": "N and nsp8 protein accumulation (Western blot)", "setting": "HCoV-229E [5]; silvestrol up to 10 nM", "value": "unaffected"}, {"measurement": "EC50", "setting": "HCoV-229E [6]", "value": 3, "unit": "nM"}, {"measurement": "EC90", "setting": "HCoV-229E [6]", "value": 27, "unit": "nM"}, {"measurement": "pharmacokinetics in terms of bioavailability and biostability", "setting": "[7]", "value": "favorable pharmacokinetics"}, {"measurement": "inhibition of firefly luciferase expression", "setting": "5′ UTR of PIM1", "value": "~40", "unit": "%"}, {"measurement": "N and nsp8 protein accumulation (Western blot)", "setting": "HCoV-229E [8]", "value": "very low amounts"}, {"measurement": "inhibition of firefly luciferase expression", "setting": "[9]", "value": "not more than 10%"}, {"measurement": "EC50", "setting": "HRV A1 [10]", "value": "~100", "unit": "nM"}, {"measurement": "EC90", "setting": "HRV A1 [10]", "value": 900, "unit": "nM"}, {"measurement": "decrease of luciferase activity", "setting": "5′ UTR of MERS-CoV", "value": "~40", "unit": "%"}, {"measurement": "decrease of firefly luciferase activity", "setting": "EBOV 5′ UTR L", "value": 33, "unit": "%"}, {"measurement": "SI, selectivity indices", "setting": "PV [11]", "value": "≤ 1.6"}, {"measurement": "EC50", "setting": "PV [11]; Enterovirus C, Vero, 24 h", "value": 100, "unit": "nM"}, {"measurement": "EC90", "setting": "PV [11]; Enterovirus C, Vero, 24 h", "value": 900, "unit": "nM"}, {"measurement": "EC50", "setting": "PV [12]", "value": "~20", "unit": "nM"}, {"measurement": "EC90", "setting": "PV [12]", "value": 180, "unit": "nM"}, {"measurement": "EC50", "setting": "HCoV-229E [13]", "value": 3.5, "unit": "nM"}, {"measurement": "EC50", "setting": "HCoV-229E [13]; 24 h", "value": 2.8, "unit": "nM"}, {"measurement": "EC90", "setting": "HCoV-229E [13]; 24 h", "value": 25, "unit": "nM"}]}]}
